Experimental data published in PubChem BioAssay AID2060337 (Molecular Pharmacology Branch, DTP, NCI, 2025).

Test system: 832693-133-R-J1-PDC multi-cell spheroids, viability
Assay: Anticancer human tumor 832693-133-R-J1-PDC patient-derived head and neck squamous carcinoma cell line growth inhibition [IpAb]
Conditions: for IC50: curve of first compound; for viability, T/C: stronger effect = lower value
Description: Combinatorial screen of targeted agents with ipatasertib and abemaciclib in multi-cell type tumor spheroids
A high-throughput screen of multi-cell type tumor spheroids was designed to identify active combinations of targeted small molecules and ipatasertib or abemaciclib. Complex spheroids include a stromal component modeled by human endothelial cells (HUVEC) and fibroblasts modeled by human mesenchymal stem cells (MSCs). The concentration ranges selected for each drug and investigational agent were based upon clinically achievable concentrations if the clinical Cmax of the agent was known.
Compounds. The drugs and investigational agents: ipatasertib (NSC767898), abemaciclib(NSC768073), selumetinib (NSC741078), trametinib (758246), adavosertib (NSC754352), everolimus (NSC733504), sapanisertib (NSC764658), vemurafenib (NSC761431), venetoclax (NSC766270), copanlisib (NSC809693), apelisib (NSC765974), palbociblib (NSC758247), vemurafenib (NSC761431), dabrafenib (NSC764134), ravoxertinib (NSC781343), BMS-387032 (NSC767048), sotorasib (NSC818433), talazoparib (NSC767125) and afursertib (NSC778305), were obtained from the National Cancer Institute (NCI) Developmental Therapeutics Program Chemical Repository. The FDA-approved anticancer drug set is available from the NCI Developmental Therapeutics Program. […] The stock solutions were prepared in dimethyl sulfoxide (DMSO, Sigma-Aldrich, St. Louis, MO, cat. D2650) at 800-fold the tested concentration and stored at -70 degrees C prior to their use. All drugs and investigational agents were tested over a range starting from a high concentration at or near the clinical Cmax and decreasing in half-log increments. If the clinical Cmax for an agent had not been determined, the highest concentration tested was 10 microM.
NCI60 Cell Culture. NCI60 cell lines were obtained from the NCI Developmental Therapeutics Program Tumor Repository. For each lot of cells, the Repository performed Applied Biosystems AmpFLSTR Identifiler testing with PCR amplification to confirm consistency with the published Identifier STR profile for each cell line. Cells were kept in continuous culture for no more than 20 passages. The optimal seeding densities for each of the cell lines at each time point assessed were determined prior to performing the concentration response studies. Briefly, the NCI60 human tumor lines were grown as monolayers in RPMI 1640 medium supplemented with 10% FBS and 2 mmol/L L-glutamine.
An additional 9 lines were from the NCI60 cell line panel including MDA-MB-231 breast carcinoma, MDA-MB-468 breast carcinoma, MCF7 breast carcinoma, Hs578T breast carcinoma, MALME-3M melanoma, SK-MEL-2 melanoma, SK-OV-3 ovarian carcinoma, DU-145 prostate carcinoma, PC-3 prostate carcinoma, all cell lines along with major genetic alterations are listed on Table 2. Pooled donor human umbilical vein endothelial cells (HUVEC, Lonza, cat. CC-2519) and human mesenchymal stem cells (hMSC, Lonza, cat. PT-2501) were purchased from Lonza (Walkersville, MD).
PDMR cell lines were grown in complete medium (DC medium): Dulbecco's modified Eagle's medium (DMEM)/F12 supplemented with 5% fetal bovine serum (FBS), 2 mM L-glutamine, 100 U/mL penicillin and 100 µg/ml streptomycin, 0.4 µg/ml hydrocortisone, 10 ng/ml epidermal growth factor (EGF) recombinant human protein, 24 µg/mL adenine, and 0.1 mg/mL primocin. During culture from frozen stock vials, PDMR cells were cultured in the same medium containing 10 µM Y-27632 (see Table 3). The PDCs were cultured in complete DMEM/F12 media without 10 microM Y-27632 dihydrochloride for at least two passages prior to the screen. The pooled donor HUVEC and hMSC were cultured in endothelial cell growth medium 2 (PromoCell, Heidelberg, Germany, cat. C-22011) and mesenchymal stem cell growth medium 2 (PromoCell, cat. C-28009), respectively. For all experiments, HUVEC and hMSC were used at passages </=5.
[…]

[1] = second compound 0.1 µM, first compound 0.0316 µM
[2] = second compound 0.1 µM, first compound 0.1 µM
[3] = second compound 0.1 µM, first compound 0.316 µM
[4] = second compound 0.1 µM, first compound 1 µM
[5] = second compound 0.1 µM, first compound 3.16 µM
[6] = second compound 0.1 µM, first compound 10 µM
[7] = second compound 0.316 µM, first compound 0.0316 µM
[8] = second compound 0.316 µM, first compound 0.1 µM
[9] = second compound 0.316 µM, first compound 0.316 µM
[10] = second compound 0.316 µM, first compound 1 µM
[11] = second compound 0.316 µM, first compound 3.16 µM
[12] = second compound 0.316 µM, first compound 10 µM
[13] = second compound 1 µM, first compound 0.0316 µM
[14] = second compound 1 µM, first compound 0.1 µM
[15] = second compound 1 µM, first compound 0.316 µM
[16] = second compound 1 µM, first compound 1 µM
[17] = second compound 1 µM, first compound 3.16 µM
[18] = second compound 1 µM, first compound 10 µM
[19] = second compound 3.16 µM, first compound 0.0316 µM
[20] = second compound 3.16 µM, first compound 0.1 µM
[21] = second compound 3.16 µM, first compound 0.316 µM
[22] = second compound 3.16 µM, first compound 1 µM
[23] = second compound 3.16 µM, first compound 3.16 µM
[24] = second compound 3.16 µM, first compound 10 µM
[25] = second compound 10 µM, first compound 0.0316 µM
[26] = second compound 10 µM, first compound 0.1 µM
[27] = second compound 10 µM, first compound 0.316 µM
[28] = second compound 10 µM, first compound 1 µM
[29] = second compound 10 µM, first compound 3.16 µM
[30] = second compound 10 µM, first compound 10 µM
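Note: spheroids exposed to the drugs for one week before the viability readout.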
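Throughout, for viability, T/C: 100% = DMSO vehicle control wells.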

Structure (SMILES) | IC50 (second compound 0.1 µM) | IC50 (second compound 0.316 µM) | IC50 (second compound 1 µM) | IC50 (second compound 3.16 µM) | IC50 (second compound 10 µM) | viability, T/C [1] | viability, T/C [2] | viability, T/C [3] | viability, T/C [4] | viability, T/C [5] | viability, T/C [6] | viability, T/C [7] | viability, T/C [8] | viability, T/C [9] | viability, T/C [13] | viability, T/C [14] | viability, T/C [19] | viability, T/C [20] | viability, T/C [25] | viability, T/C [26] | other results
C=CCn1c(=O)c2cnc(Nc3ccc(N4CCN(C)CC4)cc3)nc2n1-c1cccc(C(C)(C)O)n1 + CC(C)NCC(C(=O)N1CCN(c2ncnc3c2C(C)CC3O)CC1)c1ccc(Cl)cc1 | 0.133 µM | 0.0767 µM | 0.0358 µM | < 0.0316 µM | 0.0429 µM | 86% | 58% | 25.8% | 20.1% | 22.8% | 10.4% | 66.1% | 45.8% | 23% | 51.7% | 35.5% | 48.5% | 36% | 52.4% | 43.2% | viability, T/C [10]: 14.6%; viability, T/C [11]: 14.9%; viability, T/C [12]: 6.24%; viability, T/C [15]: 18.3%; viability, T/C [16]: 12.9%; viability, T/C [17]: 11.6%; viability, T/C [18]: 3.5%; viability, T/C [21]: 25.3%; viability, T/C [22]: 16.1%; viability, T/C [23]: 11.9%; viability, T/C [24]: 3.31%; viability, T/C [27]: 26.1%; viability, T/C [28]: 9.68%; viability, T/C [29]: 6.52%; viability, T/C [30]: 1.52%
CC(C)n1nc(-c2ccc3oc(N)nc3c2)c2c(N)ncnc21 + CC(C)NCC(C(=O)N1CCN(c2ncnc3c2C(C)CC3O)CC1)c1ccc(Cl)cc1 | 0.0789 µM | > 0.1 µM | > 0.1 µM | > 0.1 µM | > 0.1 µM | 61% | 47.7% |  |  |  |  | 81% | 52.2% |  | 71.2% | 56.7% | 66.1% | 63.9% | 53% | 51.5% | viability, T/C (second compound 0.1 µM, first compound 0.000316 µM): 88.9%; viability, T/C (second compound 0.1 µM, first compound 0.001 µM): 90.7%; viability, T/C (second compound 0.1 µM, first compound 0.00316 µM): 82.2%; viability, T/C (second compound 0.1 µM, first compound 0.01 µM): 69.3%; viability, T/C (second compound 0.316 µM, first compound 0.000316 µM): 67.5%; viability, T/C (second compound 0.316 µM, first compound 0.001 µM): 73.5%; viability, T/C (second compound 0.316 µM, first compound 0.00316 µM): 75.5%; viability, T/C (second compound 0.316 µM, first compound 0.01 µM): 88.4%; viability, T/C (second compound 1 µM, first compound 0.000316 µM): 59.4%; viability, T/C (second compound 1 µM, first compound 0.001 µM): 74.5%; viability, T/C (second compound 1 µM, first compound 0.00316 µM): 106%; viability, T/C (second compound 1 µM, first compound 0.01 µM): 97.2%; viability, T/C (second compound 3.16 µM, first compound 0.000316 µM): 68.9%; viability, T/C (second compound 3.16 µM, first compound 0.001 µM): 98.9%; viability, T/C (second compound 3.16 µM, first compound 0.00316 µM): 106%; viability, T/C (second compound 3.16 µM, first compound 0.01 µM): 69.2%; viability, T/C (second compound 10 µM, first compound 0.000316 µM): 77%; viability, T/C (second compound 10 µM, first compound 0.001 µM): 96.2%; viability, T/C (second compound 10 µM, first compound 0.00316 µM): 69.7%; viability, T/C (second compound 10 µM, first compound 0.01 µM): 45.4%
CC1(C)CCC(CN2CCN(c3ccc(C(=O)NS(=O)(=O)c4ccc(NCC5CCOCC5)c([N+](=O)[O-])c4)c(Oc4cnc5[nH]ccc5c4)c3)CC2)=C(c2ccc(Cl)cc2)C1 + CC(C)NCC(C(=O)N1CCN(c2ncnc3c2C(C)CC3O)CC1)c1ccc(Cl)cc1 | 9.68 µM | 4.87 µM | 3.92 µM | 3.74 µM | 3.64 µM | 94.1% | 90.3% | 94.6% | 88.5% | 82.7% | 48.8% | 81.2% | 80.3% | 74.2% | 60.9% | 55.2% | 51.2% | 47.6% | 58.6% | 62.5% | viability, T/C [10]: 64.7%; viability, T/C [11]: 68.7%; viability, T/C [12]: 26.9%; viability, T/C [15]: 55.2%; viability, T/C [16]: 49.5%; viability, T/C [17]: 72.4%; viability, T/C [18]: 12.7%; viability, T/C [21]: 55.5%; viability, T/C [22]: 57.3%; viability, T/C [23]: 73.2%; viability, T/C [24]: 8.99%; viability, T/C [27]: 52.2%; viability, T/C [28]: 51.6%; viability, T/C [29]: 57.4%; viability, T/C [30]: 3.92%
CCCS(=O)(=O)Nc1ccc(F)c(C(=O)c2c[nH]c3ncc(-c4ccc(Cl)cc4)cc23)c1F + CC(C)NCC(C(=O)N1CCN(c2ncnc3c2C(C)CC3O)CC1)c1ccc(Cl)cc1 | 8.04 µM | > 10 µM | > 10 µM | > 10 µM | > 10 µM | 99.1% | 102% | 92.5% | 91.1% | 88.1% | 41.4% | 79.5% | 79.2% | 93% | 60.1% | 66.3% | 54.2% | 54.8% | 53.5% | 60.5% | viability, T/C [10]: 92.9%; viability, T/C [11]: 110%; viability, T/C [12]: 56.9%; viability, T/C [15]: 66.7%; viability, T/C [16]: 85.6%; viability, T/C [17]: 139%; viability, T/C [18]: 103%; viability, T/C [21]: 62.6%; viability, T/C [22]: 82.2%; viability, T/C [23]: 126%; viability, T/C [24]: 92%; viability, T/C [27]: 61.5%; viability, T/C [28]: 68.7%; viability, T/C [29]: 98.8%; viability, T/C [30]: 56.1%
